From US10272078B2, “Crystalline forms of a prolyl hydroxylase inhibitor” (FibroGen, Inc., priority 2012, dated 2019)
Blank lines part the entries; values can stand above or below the compound they belong to.

Tests used:
Moisture sorption = format: physicochemical; settings: between 5% to 95% relative humidity; lost on desorption
[1] = Solid form stability on storage (XRPD); format: physicochemical; settings: for XRPD pattern after storage: 40° C./75% RH
Text: X-Ray Powder Diffraction patterns were collected on a Bruker AXS C2 GADDS diffractometer using Cu Kα radiation (40 kV, 40 mA), automated XYZ stage, laser video microscope for auto-sample positioning and a HiStar 2-dimensional area detector. X-ray optics consists of a single Gobel multilayer mirror coupled with a pinhole collimator of 0.3 mm. […] The beam divergence, i.e. the effective size of the X-ray beam on the sample, was approximately 4 mm. […] Typically the sample would be exposed to the X-ray beam for 120 seconds. The software used for data collection was GADDS for WNT 4.1.16 and the data were analyzed and presented using Diffrac Plus EVA v11.0.0.2 or v13.0.0.2. Alternatively, X-Ray Powder Diffraction patterns were collected on a Bruker D8 diffractometer using Cu Kα radiation (40 kV, 40 mA), θ-2θ goniometer, and divergence of V4 and receiving slits, a Ge monochromator and a Lynxeye detector. […] The software used for data collection was Diffrac Plus XRD Commander v2.5.0 and the data were analyzed and presented using Diffrac Plus EVA v11.0.0.2 or v13.0.0.2. Samples were run under ambient conditions as flat plate specimens using powder as received. The sample was gently packed into a cavity cut into polished, zero-background (510) silicon wafer. The sample was rotated in its own plane during analysis. The details of the data collection are: • Angular range: 2 to 42° 2θ • Step size: 0.05° 2θ • Collection time: 0.5 s/step • Analysis duration: 7 minutes Differential Scanning Calorimetry (DSC)

moisture sorption weight gain (Moisture sorption): approximately 0.2%
Compound: Cc1nc(C(=O)NCC(=O)O)c(O)c2ccc(Oc3ccccc3)cc12 [Compound A Form A, [(4-hydroxy-1-methyl-7-phenoxy-isoquinoline-3-carbonyl)-amino]-acetic acid]

XRPD pattern after storage [1]: Pattern 3 was observed
Compound: Cc1nc(C(=O)NCC(=O)O)c(O)c2ccc(Oc3ccccc3)cc12.NCCO [Compound A ethanolamine salt, [(4-hydroxy-1-methyl-7-phenoxy-isoquinoline-3-carbonyl)-amino]-acetic acid ethanolamine salt]

Compound: [(4-hydroxy-1-methyl-7-phenoxy-isoquinoline-3-carbonyl)-amino]-acetic acid hemihydrate [Compound A Form B]
change of crystalline pattern on storage ([1]; 25° C./96% RH for twelve days): reverting to Form A
change of crystalline form on storage (high resolution XRPD) ([1]; ambient temperature, a full month (32 days)): almost completely reverted to anhydrous Form A

Compound: [(4-hydroxy-1-methyl-7-phenoxy-isoquinoline-3-carbonyl)-amino]-acetic acid diethanolamine salt [Compound A diethanolamine salt]
XRPD pattern after storage [1]: Pattern 2 was observed
